This note sets out measurements from ChEMBL document CHEMBL1201862, “PubChem BioAssay data set” (2004).

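In this assay, cells in 96-well plates receive the compound at five concentrations for 48 hours. Endpoints are linearly interpolated between the surrounding concentrations. GI50: concentration for 50% inhibition of growth.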 The source made the active and inactive calls. Rule as the data show it: active = GI50 up to about 1.1 µM and inactive = higher. A value given as a limit tells only on which side of the number the result lay.

Some test systems named below: EKVX; COLO 205; OVCAR-4; NCI-H23; HL-60; 786-0; A549; NCI/ADR-RES; MDA-N; OVCAR-3; DU-145; KM12; SK-OV-3; HCT-116; UACC-62; HOP-92; OVCAR-8; OVCAR-5; TK-10; HT-29.
Assay in all cases: inhibition of tumour cell growth, NCI panel, 48 h

Take `COc1ccc(N2C(=O)C3ON(C(C(N)=O)c4ccccc4)C(c4cc5ccccc5c5ccccc45)C3C2=O)cc1` (stereo not given): the GI50 in the experiment on EKVX is 24.5 µM (inactive); in the experiment with COLO 205, 19.6 µM (inactive); in the experiment with OVCAR-4, 25.9 µM (inactive); in the experiment on NCI-H23, 45.7 µM (inactive); in the experiment with HL-60, 9.27 µM (inactive); with 786-0 it was 32.4 µM (inactive). Further, the GI50 was > 50 µM (inactive) in the experiment with A549; > 50 µM (inactive) in the experiment with NCI/ADR-RES; 11.8 µM (inactive) in the experiment on MDA-N; 31.7 µM (inactive) in the experiment with OVCAR-3; > 50 µM (inactive) with DU-145; 32.3 µM (inactive) in the experiment with KM12. In addition, the GI50 in the experiment on SK-OV-3 was > 50 µM (inactive); with HCT-116, 18.2 µM (inactive); with UACC-62, 10.6 µM (inactive); in the experiment with HOP-92, 47.1 µM (inactive); in the experiment on OVCAR-8, > 50 µM (inactive); in the experiment with OVCAR-5, > 50 µM (inactive). In addition, the GI50 with TK-10 was 28.8 µM (inactive); in the experiment with HT-29, 18 µM (inactive).
`OC1C[C@H](c2ccccc2)C2(C(O)c3ccccc3C2O)[C@@H](c2ccccc2)C1` (stereo not given in full): the GI50 in the experiment with EKVX was > 100 µM (inactive); in the experiment on COLO 205, > 100 µM (inactive); in the experiment with OVCAR-4 it was > 100 µM (inactive); in the experiment with NCI-H23, > 100 µM (inactive); with HL-60, 27.9 µM (inactive); in the experiment with 786-0, > 100 µM (inactive). Further, the GI50 was > 100 µM (inactive) with A549; 14.3 µM (inactive) with NCI/ADR-RES; > 100 µM (inactive) in the experiment with MDA-N; > 100 µM (inactive) in the experiment on OVCAR-3; > 100 µM (inactive) in the experiment on DU-145; > 100 µM (inactive) in the experiment with KM12. The GI50 in the experiment with SK-OV-3 is > 100 µM (inactive); in the experiment on HCT-116, > 100 µM (inactive); in the experiment on UACC-62 it was > 100 µM (inactive); with HOP-92 it was 57.4 µM (inactive); in the experiment on OVCAR-8 it was > 100 µM (inactive); with OVCAR-5 it was > 100 µM (inactive). For the same compound, the GI50 in the experiment with TK-10 and with HT-29 was > 100 µM (inactive) throughout.
Take `O=C(O)CCC1(c2ccccc2)NC(=O)NC1=O` (stereo not given): the GI50 in the experiment on EKVX, in the experiment with COLO 205, with OVCAR-4, with NCI-H23, in the experiment with HL-60 and with 786-0 was > 100 µM (inactive) each time. Further, the GI50 with A549, with NCI/ADR-RES, with MDA-N, in the experiment with OVCAR-3, in the experiment with DU-145 and in the experiment with KM12 was > 100 µM (inactive) in each case. For the same compound, the GI50 with SK-OV-3, in the experiment on HCT-116, in the experiment with UACC-62, with HOP-92, in the experiment on OVCAR-8 and with OVCAR-5 was > 100 µM (inactive) each time. For the same compound, the GI50 in the experiment with TK-10 and in the experiment with HT-29 was > 100 µM (inactive) in each case.
For `CN(C)C(=O)O/N=C1/C(=C2/C(=O)Nc3ccccc32)Nc2ccccc21`, the GI50 in the experiment with EKVX was 4.83 µM (inactive); in the experiment with COLO 205, > 100 µM (inactive); in the experiment with OVCAR-4, 6.81 µM (inactive); with NCI-H23 it was 28.7 µM (inactive); with HL-60, > 100 µM (inactive); in the experiment with 786-0, 6.98 µM (inactive). Also, the GI50 in the experiment with A549 is 20.5 µM (inactive); in the experiment with NCI/ADR-RES, 21.9 µM (inactive); in the experiment with MDA-N, 46.2 µM (inactive); in the experiment with OVCAR-3, 8.99 µM (inactive); with DU-145 it was 8.83 µM (inactive); in the experiment on KM12, 0.304 µM (active). The GI50 with SK-OV-3 was 11.8 µM (inactive); in the experiment with HCT-116 it was 19.1 µM (inactive); with UACC-62 it was 16.1 µM (inactive); in the experiment with HOP-92, 6.21 µM (inactive); with OVCAR-8, 9.75 µM (inactive); in the experiment with OVCAR-5 it was 31 µM (inactive). The GI50 was 17.4 µM (inactive) in the experiment on TK-10 and 38.8 µM (inactive) in the experiment with HT-29.
